The target in this assay is T1, Cyclophilin A (Homo sapiens, UniProt P62937).
T1 construct: made in house
The experiment in a line: AlphaLISA inhibition of binding of biotinylated Cyclosporin A to FLAG tagged Cyclophilin A. The settings on record: for % signal: AlphaLISA signal; for % signal / % inhibition of CsA binding to Cyclophilin A: test concentration not given; for IC50: read-out: IC50 value of CsA binding to Cyclophilin A. The essentials: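 Inhibition of biotin-CsA binding to FLAG-tagged Cyclophilin A read by AlphaLISA (ex 680, em 615 nm). Working stocks were 6 nM biotinylated CsA and 25 nM FLAG-CypA; beads and compound were combined first for 30 min, then protein added for 60 min, all at room temperature in the dark, with DMSO and cyclosporin A controls.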
A general note: Bead proximity is the source of the signal in Alpha formats.

Where a SMILES comes first, the peptide text is derived from it. [ ]: non-standard residue; d: D form. MeBmt = C/C=C/C[C@@H](C)[C@@H](O)[C@H](NC)C(=O)O; NMeI = CC[C@H](C)[C@H](NC)C(=O)O; NMeL = CN[C@@H](CC(C)C)C(=O)O; dNMeV = CN[C@@H](C(=O)O)C(C)C; NMeNle = CCCC[C@H](NC)C(=O)O; Tle = CC(C)(C)[C@H](N)C(=O)O; NMeV = CN[C@H](C(=O)O)C(C)C; NMeA = CN[C@@H](C)C(=O)O; dNMeA = CN[C@H](C)C(=O)O; Abu = CC[C@H](N)C(=O)O; Sar = CNCC(=O)O

T1 sequence (P62937 whole entry, species assumed): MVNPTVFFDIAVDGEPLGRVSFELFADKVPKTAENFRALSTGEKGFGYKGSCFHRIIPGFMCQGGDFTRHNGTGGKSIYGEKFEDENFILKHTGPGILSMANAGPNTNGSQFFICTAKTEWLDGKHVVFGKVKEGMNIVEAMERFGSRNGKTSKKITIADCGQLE

In general, IC50 refers to the midpoint of a concentration-inhibition curve. For `C/C=C/C[C@@H](C)[C@@H](O)[C@H]1C(=O)N[C@@H](CC)C(=O)N(C)CC(=O)N(C)[C@@H](CCCC)C(=O)N[C@@H](C(C)C)C(=O)N(C)[C@@H](C)C(=O)N[C@@H](CC(C)C)C(=O)N[C@H](C)C(=O)N(C)[C@@H](CC(C)C)C(=O)N(C)[C@@H](CC(C)C)C(=O)N(C)[C@@H](C(C)C)C(=O)N1C` [Compound C92] (cyclo([Abu][Sar][NMeNle]V[NMeA]L[dA][NMeL][NMeL][NMeV][MeBmt])), the “% signal” value came to 9.00%, the IC50 was below 2000 nM and the “% inhibition of CsA binding to Cyclophilin A” value (from here on “% inhibition of CsA binding”) is on record as 91.00%.
The like results for `C/C=C/C[C@@H](C)[C@@H](O)[C@H]1C(=O)N[C@@H](CC)C(=O)N(C)CC(=O)N(C)[C@@H](C)C(=O)N[C@@H](C(C)C)C(=O)N(C)[C@@H](CC(C)C)C(=O)N[C@@H](CC(C)C)C(=O)N[C@H](C)C(=O)N(C)[C@@H](CC(C)C)C(=O)N(C)[C@@H](CC(C)C)C(=O)N(C)[C@@H](C(C)C)C(=O)N1C` [Compound C46] (cyclo([MeBmt][Abu][Sar][NMeA]V[NMeL]L[dA][NMeL][NMeL][NMeV])) were, in that order, 1.04%, below 2000 nM and 98.96%.
On to `C/C=C/C[C@@H](C)[C@@H](O)[C@H]1C(=O)N[C@@H](CC)C(=O)N(C)CC(=O)N(C)[C@@H](C)C(=O)N[C@@H](C(C)C)C(=O)N(C)[C@@H](C)C(=O)N[C@@H](CC(C)C)C(=O)N[C@H](C)C(=O)N(C)[C@@H](CC(C)C)C(=O)N(C)[C@@H](CC(C)C)C(=O)N(C)[C@@H](C(C)C)C(=O)N1C` [Compound C82] (cyclo([MeBmt][Abu][Sar][NMeA]V[NMeA]L[dA][NMeL][NMeL][NMeV])), for which the “% signal” value is 0.77%, the IC50 was below 2000 nM and the “% inhibition of CsA binding” value was 99.23%.
Taken in the same sequence, the figures for `C/C=C/C[C@@H](C)[C@@H](O)[C@H]1C(=O)N[C@@H](CC)C(=O)N(C)CC(=O)N(C)[C@@H]([C@@H](C)CC)C(=O)N[C@@H](C(C)C)C(=O)N(C)[C@@H](C)C(=O)N[C@@H](CC(C)C)C(=O)N[C@H](C)C(=O)N(C)[C@@H](CC(C)C)C(=O)N(C)[C@@H](CC(C)C)C(=O)N(C)[C@@H](C(C)C)C(=O)N1C` [Compound C81] (cyclo([MeBmt][Abu][Sar][NMeI]V[NMeA]L[dA][NMeL][NMeL][NMeV])) were 0.76%, below 2000 nM and 99.24%.
The like results for `C/C=C/C[C@@H](C)[C@@H](O)[C@H]1C(=O)N[C@@H](CC)C(=O)N(C)CC(=O)N(C)[C@@H](C(C)C)C(=O)N[C@@H](C(C)C)C(=O)N(C)[C@@H](CC(C)C)C(=O)N[C@@H](CC(C)C)C(=O)N[C@H](C)C(=O)N(C)[C@@H](CC(C)C)C(=O)N(C)[C@@H](CC(C)C)C(=O)N(C)[C@@H](C(C)C)C(=O)N1C` [Compound C53] (cyclo([MeBmt][Abu][Sar][NMeV]V[NMeL]L[dA][NMeL][NMeL][NMeV])) were, in that order, −0.01%, below 2000 nM and 100.01%.
Taken in the same sequence, the figures for `C/C=C/C[C@@H](C)[C@@H](O)[C@H]1C(=O)N[C@@H](CC)C(=O)N(C)CC(=O)N(C)[C@H](C(C)C)C(=O)N[C@@H](C(C)C)C(=O)N(C)[C@@H](CC(C)C)C(=O)N[C@@H](CC(C)C)C(=O)N[C@H](C)C(=O)N(C)[C@@H](CC(C)C)C(=O)N(C)[C@@H](CC(C)C)C(=O)N(C)[C@@H](C(C)C)C(=O)N1C` [Compound C55] (cyclo([MeBmt][Abu][Sar][dNMeV]V[NMeL]L[dA][NMeL][NMeL][NMeV])) were 32.88%, below 2000 nM and 67.12%.
Turning to `C/C=C/C[C@@H](C)[C@@H](O)[C@H]1C(=O)N[C@@H](CC)C(=O)N(C)CC(=O)N(C)[C@H](C(C)C)C(=O)N[C@@H](C(C)C)C(=O)N(C)[C@@H](C)C(=O)N[C@@H](CC(C)C)C(=O)N[C@H](C)C(=O)N(C)[C@@H](CC(C)C)C(=O)N(C)[C@@H](CC(C)C)C(=O)N(C)[C@@H](C(C)C)C(=O)N1C` [Compound C91] (cyclo([Abu][Sar][dNMeV]V[NMeA]L[dA][NMeL][NMeL][NMeV][MeBmt])), the “% signal” value is 5.17%, the IC50 was below 2000 nM and the “% inhibition of CsA binding” value is 94.83%.
In the case of `C/C=C/C[C@@H](C)[C@@H](O)[C@H]1C(=O)N[C@@H](CC)C(=O)N(C)CC(=O)N(C)[C@H](C)C(=O)N[C@@H](C(C)C)C(=O)N(C)[C@@H](C)C(=O)N[C@@H](CC(C)C)C(=O)N[C@H](C)C(=O)N(C)[C@@H](CC(C)C)C(=O)N(C)[C@@H](CC(C)C)C(=O)N(C)[C@@H](C(C)C)C(=O)N1C` [Compound C83] (cyclo([MeBmt][Abu][Sar][dNMeA]V[NMeA]L[dA][NMeL][NMeL][NMeV])), the “% signal” value is given as 0.65% and the 50% inhibitory concentration (IC50) is below 2000 nM.
With `C/C=C/C[C@@H](C)[C@@H](O)[C@H]1C(=O)N[C@@H](CC)C(=O)N(C)CC(=O)N(C)[C@@H](C)C(=O)N[C@@H](C(C)(C)C)C(=O)N(C)[C@@H](C)C(=O)N[C@@H](CC(C)C)C(=O)N[C@H](C)C(=O)N(C)[C@@H](CC(C)C)C(=O)N(C)[C@@H](CC(C)C)C(=O)N(C)[C@@H](C(C)C)C(=O)N1C` [Compound C70] (cyclo([MeBmt][Abu][Sar][NMeA][Tle][NMeA]L[dA][NMeL][NMeL][NMeV])), the “% signal” value was determined as 0.05%, the IC50 is below 2000 nM and the “% inhibition of CsA binding” value is on record as 99.95%.
For `C/C=C/C[C@@H](C)[C@@H](O)[C@H]1C(=O)N[C@@H](CC)C(=O)N(C)CC(=O)N(C)[C@@H]([C@@H](C)CC)C(=O)N[C@@H](C(C)C)C(=O)N(C)[C@@H](CC(C)C)C(=O)N[C@@H](CC)C(=O)N[C@H](C)C(=O)N(C)[C@@H](CC(C)C)C(=O)N(C)[C@@H](CC(C)C)C(=O)N(C)[C@@H](C(C)C)C(=O)N1C` [Compound C93] (cyclo([Abu][Sar][NMeI]V[NMeL][Abu][dA][NMeL][NMeL][NMeV][MeBmt])), the “% signal” value is 1.28%, the IC50 is below 2000 nM and the “% inhibition of CsA binding” value is 98.72%.
Taken in the same sequence, the figures for `C/C=C/C[C@@H](C)[C@@H](O)[C@H]1C(=O)N[C@@H](CC)C(=O)N(C)CC(=O)N(C)CC(=O)N[C@@H](C(C)(C)C)C(=O)N(C)[C@@H](C)C(=O)N[C@@H](CC(C)C)C(=O)N[C@H](C)C(=O)N(C)[C@@H](CC(C)C)C(=O)N(C)[C@@H](CC(C)C)C(=O)N(C)[C@@H](C(C)C)C(=O)N1C` [Compound C73] (cyclo([MeBmt][Abu][Sar][Sar][Tle][NMeA]L[dA][NMeL][NMeL][NMeV])) were 0.01%, below 2000 nM and 99.99%.
As to `C/C=C/C[C@@H](C)[C@@H](O)[C@H]1C(=O)N[C@@H](CC)C(=O)N(C)CC(=O)N(C)[C@@H](CC(C)C)C(=O)N[C@@H](CC(C)C)C(=O)N(C)[C@@H](C)C(=O)N[C@@H](C)C(=O)N[C@H](C)C(=O)N(C)[C@@H](CC(C)C)C(=O)N(C)[C@@H](CC(C)C)C(=O)N(C)[C@@H](C(C)C)C(=O)N1C` [Compound C14] (cyclo([MeBmt][Abu][Sar][NMeL]L[NMeA]A[dA][NMeL][NMeL][NMeV])), the “% signal” value amounted to 9.36% and the IC50 is below 2000 nM.

These data come from patent US20200199102A1, “COMPOUNDS THAT PARTICIPATE IN COOPERATIVE BINDING AND USES THEREOF” (Revolution Medicines, Inc., priority 2017, published 2020).
